The source of these data is ChEMBL document CHEMBL1138655, “Synthesis and biological studies of 1-amino beta-carbolines” (Bioorg Med Chem Lett, 2004).

For one assay, the system named is Leishmania donovani. Kind of assay: inhibitory concentration against Leishmania donovani was determined. It counts as functional, organism-based.
The subject of assay [1] is Trypanosoma brucei rhodesiense. Kind of assay: inhibitory concentration against Trypanosoma brucei rhodesiense determined. It counts as functional, organism-based.
In a further assay the test system is Trypanosoma cruzi. Kind of assay: inhibitory concentration against Trypanosoma cruzi was determined. The format is functional, organism-based.
In a further assay the test system is Plasmodium falciparum. Briefly: Inhibitory concentration for Plasmodium falciparum. It counts as functional, organism-based.
For the next assay, the system named is UACC-62. Kind of assay: Concentration required for 50% growth inhibition against human melanoma UACC-62 cell lines. The format is functional.
The subject of a further assay is HOP-92. Kind of assay: Concentration required for 50% growth inhibition against human non small cell lung cancer HOP-92. It counts as functional.
Another assay deals with HT-29. Kind of assay: Concentration required for 50% growth inhibition against human colon HT-29 cell lines. It counts as functional.
The next assay concerns MDA-MB-231. Briefly: Concentration required for 50% growth inhibition against human breast MDA-MB-231/ATCC cell lines. The format is functional.
The next assay relates to OVCAR-3. Kind of assay: Concentration required for 50% growth inhibition against human ovarian OVCAR-3 cell lines. It counts as functional.
In a further assay the test system is M14. Kind of assay: Concentration required for 50% growth inhibition against human melanoma M14 cell lines. The format is functional.
For a further assay, the system named is K562. Kind of assay: Concentration required for 50% growth inhibition against human leukemia K-562 cell lines. The format is functional.

≈ marks a conversion by molar mass, not a printed value.

Consider `CCN(CC)N1CCN(c2[nH]ccc3c4ccccc4nc2-3)CC1`, for which the IC50 in the assay on Leishmania donovani was above 90 µg/mL; in assay [1], 0.63 µg/mL (≈ 1.95 µM); with Trypanosoma cruzi it was 5.8 µg/mL (≈ 17.9 µM); with Plasmodium falciparum, 0.41 µg/mL (≈ 1.27 µM).
Consider `OCCNc1[nH]ccc2c3ccccc3nc1-2`, for which the IC50 with Leishmania donovani was above 90 µg/mL; in [1], 1.8 µg/mL (≈ 7.92 µM); in the assay with Trypanosoma cruzi it was 4.25 µg/mL (≈ 18.7 µM); with Plasmodium falciparum, 2.4 µg/mL (≈ 10.6 µM).
Turning to `OC1CCCN(c2[nH]ccc3c4ccccc4nc2-3)C1` (configuration not stated), the IC50 with Leishmania donovani was above 90 µg/mL; in [1], 8.9 µg/mL (≈ 33.3 µM); with Trypanosoma cruzi, 19.3 µg/mL (≈ 72.4 µM); with Plasmodium falciparum it was 3.4 µg/mL (≈ 12.7 µM).
The like results for `c1ccc2c3cc[nH]c(N4CCN(N5CCCC5)CC4)c-3nc2c1` were, in that order, above 90 µg/mL, 0.52 µg/mL (≈ 1.62 µM), 6.1 µg/mL (≈ 19 µM) and 0.45 µg/mL (≈ 1.4 µM).
The like results for `c1ccc2c3cc[nH]c(N4CCN(N5CCCCC5)CC4)c-3nc2c1` were, in that order, above 90 µg/mL, 1.8 µg/mL (≈ 5.37 µM), 2.35 µg/mL (≈ 7.01 µM) and 0.39 µg/mL (≈ 1.16 µM).
Regarding `c1ccc2c3cc[nH]c(N4CCN(N5CCCCCC5)CC4)c-3nc2c1`, the IC50 in the assay with Leishmania donovani is above 90 µg/mL; in assay [1], 0.61 µg/mL (≈ 1.75 µM); in the assay with Trypanosoma cruzi, 6.5 µg/mL (≈ 18.6 µM); in the assay on Plasmodium falciparum, 0.35 µg/mL (≈ 1 µM).
On the same counts, the results for `CN(C)CCCNc1nccc2c1[nH]c1ccccc12` are above 90 µg/mL, 28.1 µg/mL (≈ 105 µM), 4.2 µg/mL (≈ 15.7 µM) and 0.45 µg/mL (≈ 1.68 µM).
Regarding `CCN(CC)CCCNc1nccc2c1[nH]c1ccccc12`, the IC50 is above 90 µg/mL in the assay with Leishmania donovani, 0.18 µg/mL (≈ 0.607 µM) in [1], 1.62 µg/mL (≈ 5.47 µM) in the assay on Trypanosoma cruzi and 0.64 µg/mL (≈ 2.16 µM) in the assay on Plasmodium falciparum. Moreover, the concentration for 50% growth inhibition (GI50) in the assay on UACC-62 came to 2.3 µM; with HOP-92, 0.38 µM; in the assay with HT-29 it was 2.7 µM; in the assay with MDA-MB-231 it was 5.2 µM; with OVCAR-3 it was 1.6 µM; in the assay with M14, 2 µM. This molecule also gave a concentration for 50% growth inhibition (GI50) in the assay on K562 of 3.2 µM.
Turning to `c1ccc2c(c1)[nH]c1c(N3CCOCC3)nccc12`, the IC50 with Leishmania donovani was above 90 µg/mL; in assay [1], 18.2 µg/mL (≈ 71.9 µM); in the assay with Trypanosoma cruzi, 25.1 µg/mL (≈ 99.1 µM); with Plasmodium falciparum, 4.59 µg/mL (≈ 18.1 µM).
Regarding `c1ccc2c(c1)[nH]c1c(N3CCCCC3)nccc12`, the IC50 in the assay with Leishmania donovani was above 90 µg/mL; in [1] it was 0.13 µg/mL (≈ 0.517 µM); with Trypanosoma cruzi, above 30 µg/mL; with Plasmodium falciparum it was 1.2 µg/mL (≈ 4.77 µM).
As for `CCN(CC)CCCC(C)Nc1nccc2c1[nH]c1ccccc12` (configuration not stated), the IC50 was above 90 µg/mL in the assay with Leishmania donovani, 0.13 µg/mL (≈ 0.401 µM) in [1], 3 µg/mL (≈ 9.25 µM) in the assay on Trypanosoma cruzi and 0.42 µg/mL (≈ 1.29 µM) with Plasmodium falciparum. Also, the GI50 in the assay on UACC-62 was determined as 24 µM; in the assay with HOP-92 it was 4.5 µM; in the assay with HT-29, 22.9 µM; with OVCAR-3, 22.8 µM; in the assay with M14 it was 16.4 µM; in the assay with K562, 12.2 µM.
In the case of `CN1CCN(c2nccc3c2[nH]c2ccccc23)CC1`, the IC50 in the assay on Leishmania donovani was above 90 µg/mL; in [1], 0.63 µg/mL (≈ 2.37 µM); in the assay on Trypanosoma cruzi, 4.3 µg/mL (≈ 16.1 µM); with Plasmodium falciparum, 0.62 µg/mL (≈ 2.33 µM). Besides, the GI50 with UACC-62 was found to be 17.8 µM; with HOP-92, 18.6 µM; in the assay with MDA-MB-231, 3.9 µM; in the assay on OVCAR-3 it was 19.9 µM; in the assay with M14, 14.9 µM; in the assay on K562 it was 22.5 µM.

A word on the IC50: it is the point on the concentration scale where inhibition reaches its midpoint. A higher IC50 goes with a need for much substance. The term GI50 denotes the concentration giving 50% growth inhibition. A high value points to lower sensitivity of the cells.
